Measured values: a melting point compilation (Tetko et al.; mined from patent text by program, amines drawn as free bases though some values may be those of a salt)

| melting point | SMILES |
| --- | --- |
| 100 to 101 °C | O=S(=O)(CCCCl)Nc1ccccc1OCc1ccc2ccccc2n1 |
| 128 to 130 °C | Cc1cc(-c2ncn(Cc3ccc(F)cc3)n2)sc1C(=O)NCc1ccccc1 |
| 96 to 97 °C | CCN(C)c1nc2ccccc2n2cnc(-c3nc(C4CC4)no3)c12 |
| 81 to 83 °C | CN(C(=O)c1cccc(C(F)(F)F)c1)c1ccccc1CCCCC(=O)O |
| 165 to 166 °C | COc1ccc(OC)c(NC(=O)c2cccc3cc(O)ccc23)c1 |
| 157 to 158 °C | N#Cc1cccnc1N1CCN(CC(=O)Nc2cccc(C(F)(F)F)c2)CC1 |
| 234 to 236 °C | CC(C)n1nc(-c2sc(NC(=O)C3CCCCC3)nc2-c2ccccc2)ccc1=O |
| 130 to 135 °C | COC(=O)COc1cccc2c(O)c(C(C)=O)ccc12 |
| 160 to 163 °C | Cc1cc2c(cc1O)C(C1(C3CCCc4ccccc43)CC1)N(C)CC2 (stereo not drawn) |
| 126 °C | O=C(CCN1CCN(c2ccccc2)CC1)NCC(=O)c1ccccc1 |
| 249 °C | CC(C)(C)OC(=O)N1CCC(Nc2nc3ccccc3[nH]2)CC1 |
| 120 to 122 °C | CCS(=O)(=O)Nc1ccc(C(O)CNCC2CCc3ccccc3C2=O)cc1 (stereo not drawn) |
| 75 to 77 °C | CCOC(=O)CC(=O)c1ccc(-c2ccccc2)cc1 |
| 161 °C | CCCCOc1ccc(C(=O)Nc2ccc3cc(CN4CCCC4)cnc3c2C)cc1 |
| 162 to 164 °C | CC(C)(C)NCC(O)COc1ccccc1-c1ccc(=O)[nH]n1 (stereo not drawn) |
| 113 to 115 °C | CC(C)(C)c1cc(OCCCCCCc2nnn[nH]2)cc(C(C)(C)C)c1 |
| 225 to 227 °C | CCCP(=O)(CCC)Cc1ccc(NC(=O)/C=C/c2cccc(-c3ccc(C)cc3)c2)cc1 |
| 218 to 220 °C | CC(=O)NCCCc1c[nH]c(-c2ccc(F)cc2)c1-c1ccncc1 |
| 110 to 112 °C | Nc1cccc(CC(=O)NCc2ccccc2Br)c1 |

| melting point | SMILES |
| --- | --- |
| 160 to 162 °C | O=C1c2ccc(O)cc2CCC1Cc1ccccc1 (stereo not drawn) |
| 60 to 62 °C | CCCCOC(=O)c1nc(Cl)c2cc(OC(C)C)ccc2c1O |
| 98 to 99 °C | CCCc1nn(-c2ccc(C(F)(F)F)cn2)cc1CCCOc1cc(CCC(=O)O)cc(OC)c1 |
| 169 to 170 °C | CCc1noc(-c2cc3c4ccccc4n(CCCN4CCC(O)(c5ccccc5)CC4)c3cn2)n1 |
| 65 to 67 °C | O=C(NCc1ccccc1)c1ccnc(NC(=O)c2cccc3ccccc23)c1 |
| 62 to 64 °C | COc1ccc2ccc(C(=O)NC(C)C)c(OC(C)C)c2c1 |
| 200 to 203 °C | CCCCc1nn(-c2cc(NC(=O)CC)ccc2Cl)c(=O)n1Cc1ccc(-c2ccccc2S(=O)(=O)NC(=O)c2c(F)cccc2Cl)cc1F |
| > 230 °C | Cc1cc(C(F)(F)F)ccc1NC(=O)c1c(C)cccc1NC(=O)C(C)C |
| 213 to 216 °C | CC(C)n1nc(-c2c(OCCN)nc(N)nc2-c2ccccc2)ccc1=O |
| 121 to 123 °C | COCCOC(=O)Nc1cccc(C)c1COc1cccn2c(CO)c(C)nc12 |
| 173 to 175 °C | COc1ccc(CNc2nc(N)n3nc(-c4ccco4)nc3n2)cc1OCc1ccccc1 |
| 68 to 70 °C | OC(c1ccc(Cl)cc1)c1ccccc1Cl (stereo not drawn) |
| 162 to 165 °C | O=C(O)c1ccc(Oc2nn(Cc3ccccc3)c3ccccc23)o1 |
| 130 to 133 °C | Cc1cccc(NCCNc2cccc(C)c2C)c1C |
| 160 °C | OC1(c2ccc(Cl)cc2)CCN(CCCn2cnc3ccccc32)CC1 |
| 120 to 122 °C | CN(CCN1CCOCC1)C(=O)c1ccc(COc2cccc3c2CN(C2CCC(=O)NC2=O)C3=O)cc1 (stereo not drawn) |
| 105 °C | CCO[C@@H](Cc1ccc(O)cc1)C(=O)O |
| 138 to 139 °C | COc1ccc(OCCOc2ccc(C(=O)C(=O)O)cc2)cc1 |
| 75 to 77 °C | CN(CCc1ccc(Nc2ncc3c(n2)-c2ccccc2C(c2cccc(Br)c2)C3)cc1)CCc1ccccn1 (stereo not drawn) |

| melting point | SMILES |
| --- | --- |
| 161 to 163 °C | O=C(NN1CCCNC1=O)OCc1ccccc1 |
| 85 to 87 °C | CC(C)(C)CNc1cc(F)cc(C(=O)Nc2ccc(OCCN3CCOCC3)c3ccccc23)c1 |
| 202 to 203 °C | O=C(O)CCC(=O)c1cc2c(s1)CCc1ccccc1C2 |
| 83 to 105 °C | CC(CC1OCCc2ccccc21)NCC(O)c1ccc(O)cc1 (stereo not drawn) |
| 104 to 105 °C | COc1ccccc1-c1nc(CC(=O)O)cs1 |
| 67.5 to 68.5 °C | CC(O)C1C(=O)NC1CC(=O)OCc1ccccc1 (mixture of isomers) |
| 266 to 271 °C | NC(C(=O)O)c1c(C(=O)O)csc1-c1ccccc1 (stereo not drawn) |
| 211 to 216 °C | Cc1cnc2ncc(-c3cccc(-c4ccccc4C#N)c3)n2n1 |
| 108 to 109 °C | CCCCC[C@@H](CNC(=O)Nc1c(OCC)ccc2c1CCC2)c1cccc2c1OCO2 |
| 212 to 213 °C | CC(C)(C)OC(=O)N1CCN(c2cccc(-c3cnc4[nH]cc(C(=O)C5(C)CCCCC5)c4n3)c2)CC1 |
| 207 to 210 °C | COc1ccc(CNC(=O)C(Cc2ccccc2)NC(=O)Nc2n[nH]c(=S)s2)cc1OC (stereo not drawn) |
| 120 °C | C=C(C)COc1ccc(Br)cc1CN(CC)c1ccc(C(=O)NS(=O)(=O)c2c(C)noc2C)nn1 |
| 98 °C | COc1ccc2c(c1)C(O)(c1ccccn1)CC(C)(C)CO2 (stereo not drawn) |
| 195 to 196 °C | C=C(C)C(=O)Nc1cccc(OC(=O)Nc2cccc3ccccc23)c1 |
| 116 to 119 °C | Cc1cc(C2=CCN=C(CCCC(O)c3ccc(F)cc3)C2)on1 (stereo not drawn) |
| 205 to 207 °C | NC(=O)CC(CC(N)=O)c1cccc(OCc2ccccc2)c1 |
| 176 to 178 °C | COc1ccc(-n2c(=O)cc(C(F)(F)F)n(N)c2=O)cc1 |
| 206 to 207 °C | CC(C)(C)Sc1c(CC(C)(C)C(=O)O)n(Cc2ccc(Cl)cc2)c2ccc(OCc3cccc(Cl)n3)cc12 |
| 249 to 250 °C | CC1(C)Oc2cc([N+](=O)[O-])ccc2[C@@H](N2Cc3ccccc3C2=O)[C@@H]1O (relative stereo) |

The next lines start with the molecule.

| SMILES | melting point |
| --- | --- |
| NC(=O)c1ccc(N2CCN(Cc3cn4cc(Br)ccc4n3)CC2)cc1 | 238 to 239 °C |
| CCCCCCOc1c(C=Cc2ccc(Br)cc2)ccc2c(OCCCCCC)c(C=Cc3ccc(Br)cc3)ccc12 | 170 to 172 °C |
| CCOP(=O)(OCC)c1c(C)c2c(c(C)c1-c1c(OC)ccc3ccccc13)CN(S(=O)(=O)c1ccc(C)cc1)C2 | 58 to 60 °C |
| CCCN(CCC)c1nc2c(Cl)nccc2c(=O)[nH]1 | 180 °C |
| N#Cc1n[nH]c2nc(N3CCN(CCO)CC3)ccc12 | 232 to 233 °C |
| NC(=O)c1nnc2n1-c1ccc(Cl)cc1C(c1ccccc1)=NC2 | 285 to 289 °C |
| O=c1c2c(F)cccc2nc2sccn12 | 205 to 207 °C |
| Cn1cc([C@H]2CC[C@@H](N3CCN(c4cc(C(=O)O)cc5cccnc45)CC3)CC2)c2cc(C#N)ccc21 | 230 °C |
| COc1cccc(C2CCCN(C(=O)N(C)O)C2)c1 (stereo not drawn) | 96 to 98 °C |
| Nc1cc(Cl)cc(N)c1[N+](=O)[O-] | 202 °C |
| COC(=O)c1cc2c(cc1[N+](=O)[O-])OCCO2 | 115 to 118 °C |
| Nc1cc(Cl)cc(Cl)c1C(=O)NCc1cccc(Br)c1 | 157 to 159 °C |
| CCn1cc(C(=O)O)c(=O)c2cnc(N3CCN(CC(C)O)CC3)nc21 (stereo not drawn) | 214 to 216 °C |
| COc1ccc(C=C2SC(=S)N(CC(=O)O)C2=O)cc1-c1cc2c(cc1C)C(C)(C)CCC2(C)C | 242 to 244 °C |
| CCC(CC)c1ccc(Cl)c2nc3n(c12)CCCCN3c1ncc(C(C)=O)cc1C | 142 °C |
| CCC(=CC(CNC(=O)c1ccncc1)=NO)C(C)[N+](=O)[O-] (stereo not drawn) | 145 to 148 °C |
| COc1cnc(CSc2nc3cc(OC(F)F)ccc3[nH]2)c(C)c1OC | 100 to 102 °C |
| CCCCCCCCCCS(=O)(=O)NC(=O)c1cnc(C(=O)NCC(=O)OCC)c(OC)c1 | 70 °C |
| NC(=O)c1cnn2c1NCCC2c1cccc(C(F)(F)F)c1 (stereo not drawn) | 152 to 154 °C |
| CCOC(=O)C(C(=O)OCC)c1ccc(NC(=O)c2cc3c(n(CC4CCCCC4)c2=O)CCCCCC3)c(C(F)(F)F)c1 | 160 to 162 °C |
| CCc1c(Oc2cnc(N)nc2N)cc(Br)c2c1OCCO2 | 291 to 293 °C |

| SMILES | melting point |
| --- | --- |
| CC1N=C(c2ccccc2)c2ccccc2NC1=O (stereo not drawn) | 160 to 162 °C |
| CCn1ncc2c3ncn(CCC(C)C)c(=O)c3cnc21 | 165 to 167 °C |
| Cc1ccnc2c([N+](=O)[O-])cc(Cc3cnc(N)nc3N)cc12 | 256 to 258 °C |
| CN(CC[C@H]1CC[C@H](C(=O)O)CC1)C(=O)OC(C)(C)C | 212 to 214 °C |
| COc1cnn(-c2cc(F)c(C#N)cc2F)c(=O)c1Cl | 182 °C |
| CC(C)(C)c1nnc(-c2nn(-c3ccc(F)cc3F)c3c2C2CCC3C2)o1 (stereo not drawn) | 108 to 110 °C |
| CC(=O)N1CCC(CCC(=O)c2ccc3c(c2)CCO3)CC1 | 93 to 95 °C |
| COC(=O)c1c(Cl)c(Cl)c(Cl)c(Cl)c1C#N | 82 to 83 °C |
| CN1CCN(c2nc3sc4c(NCc5ccccn5)ncnc4c3c3c2CCC(C)(C)C3)CC1 | 200 to 202 °C |
| CC1CCN(C(=O)C(Cc2cc3c(N)nccc3s2)NS(=O)(=O)c2ccc(OC3CCOCC3)cc2)CC1 (stereo not drawn) | 127 to 129 °C |
| O=[N+]([O-])c1ccc(-c2ccc(S(=O)c3ccc(Cl)c([N+](=O)[O-])c3)cc2)cc1 (stereo not drawn) | 220 to 222 °C |
| O=C(Cl)c1cc([N+](=O)[O-])ccc1F | 59 to 60 °C |
| CN1CCCC(Nc2ccnc3cc(Cl)ccc23)C1 (racemic) | 149 to 150 °C |
| CN1C(=O)COc2ccc(C3=NNC(=O)CC3)cc21 | 247 to 248 °C |
| Cn1cc(CO)c(=O)c2ccc(C(F)(F)F)cc21 | 172 to 175 °C |
| O=C(O)CCCCCc1cccnc1 | 100 to 105 °C |
| O=C(c1ccc(-n2ccc(C(F)(F)F)n2)cc1)N1Cc2cccn2Cc2ccccc21 | 166 to 167 °C |
| Cc1cccc(-c2nc(N)sc2-c2ccc(F)c(-c3cnn(C)c3)c2)n1 | 153 to 155 °C |
| CCOC(=O)CCc1cc(O)nn1CC(C)C | 102 to 103 °C |
| O=C(NC1N=C(c2ccccc2F)c2ccccc2NC1=O)OCc1ccccc1 (racemic) | 208 °C |
